The NIST ThermoML archive (doi:10.1016/j.fluid.2013.06.031)
Numbers after ± are expanded uncertainties.

Details: Liquid, Closed cell (Static) method

Compound: CC(F)(F)CC(F)(F)F [1,1,1,3,3-pentafluorobutane]
- vapor or sublimation pressure (332.79 K): 194.9 ± 0.7 kPa
- vapor or sublimation pressure (333.18 K): 197.1 ± 0.7 kPa
- vapor or sublimation pressure (342.65 K): 261.5 ± 0.8 kPa
- vapor or sublimation pressure (347.94 K): 303.9 ± 0.8 kPa
- vapor or sublimation pressure (352.87 K): 348.7 ± 0.9 kPa
- vapor or sublimation pressure (357.77 K): 401.1 ± 0.9 kPa
- vapor or sublimation pressure (363.03 K): 459.2 ± 1 kPa
- vapor or sublimation pressure (367.94 K): 519.8 ± 1.1 kPa
- vapor or sublimation pressure (372.87 K): 586.1 ± 1.2 kPa
- vapor or sublimation pressure (378.04 K): 662.3 ± 1.3 kPa
- vapor or sublimation pressure (382.95 K): 741.4 ± 1.4 kPa
- vapor or sublimation pressure (387.88 K): 828.9 ± 1.5 kPa
- vapor or sublimation pressure (393.02 K): 927.2 ± 1.7 kPa
- vapor or sublimation pressure (398.06 K): 1036.4 ± 1.8 kPa
- vapor or sublimation pressure (402.92 K): 1146 ± 2 kPa
- vapor or sublimation pressure (408.07 K): 1271.5 ± 2.2 kPa
- vapor or sublimation pressure (413.09 K): 1403.8 ± 2.4 kPa
- vapor or sublimation pressure (418 K): 1542.4 ± 2.7 kPa
- vapor or sublimation pressure (423.13 K): 1698.6 ± 2.9 kPa
- vapor or sublimation pressure (428.15 K): 1862.7 ± 3.2 kPa
- vapor or sublimation pressure (433.05 K): 2034.5 ± 3.5 kPa
- vapor or sublimation pressure (438.03 K): 2225.4 ± 3.8 kPa
- vapor or sublimation pressure (442.99 K): 2425.5 ± 4.1 kPa
- vapor or sublimation pressure (447.89 K): 2637.1 ± 4.4 kPa
